Measured values published in US4156724A, “N-acylamino-alpha-arylacetamido cephalosporins and antibacterial compositions and methods containing them” (Sumitomo Chemical Company, Limited, priority 1974, dated 1979).
≈ marks a conversion by molar mass, not a printed value.

Experiments:
Format in all cases: cell-based
[1] = tested on: Staphylococcus aureus 209 P; assay: Minimum Inhibitory Concentration, Staphylococcus aureus 209 P; details: Staphylococcus aureus 209 P; read-out: Minimum Inhibitory Concentration
Procedure: (§1) anti-microbial activity tests were carried out on the compounds obtained in the Examples.

[2] = tested on: Staphylococcus aureus FS 289; assay: Minimum Inhibitory Concentration, Staphylococcus aureus FS 289; details: FS289; Staphylococcus aureus FS 289, strain resistant to penicillin; read-out: Minimum Inhibitory Concentration
Procedure: as §1
*Staphylococcus aureus FS 289: strain resistant to penicillin

Escherichia coli NIHJ = assay: Minimum Inhibitory Concentration, Escherichia coli NIHJ; details: Escherichia coli NIHJ; read-out: Minimum Inhibitory Concentration
Procedure: as §1

[3] = tested on: Klebsiella pneumoniae 602; assay: Minimum Inhibitory Concentration, Klebsiella pneumoniae 602; details: Klebsiella pneumoniae, 602, Klebsiella pneumoniae 602; read-out: Minimum Inhibitory Concentration
Procedure: as §1

Proteus vulgaris HX 19 = assay: Minimum Inhibitory Concentration, Proteus vulgaris HX 19; details: HX19; Proteus vulgaris HX 19; read-out: Minimum Inhibitory Concentration
Procedure: as §1

[4] = tested on: Pseudomonas aeruginosa 104; assay: Minimum Inhibitory Concentration, Pseudomonas aeruginosa 104; details: Pseudomonas aeruginosa 104; read-out: Minimum Inhibitory Concentration
Procedure: as §1

Serratia No. 72 = assay: Minimum Inhibitory Concentration, Serratia No. 72
Procedure: as §1

[5] = tested on: Enterobacter aerogeneus No. 75; assay: Minimum Inhibitory Concentration, Enterobacter aerogeneus No. 75; details: Enterobacter aerogeneus No. 75; read-out: Minimum Inhibitory Concentration
Procedure: as §1

| Compound | MIC [1] [µg/mL] | MIC [2] [µg/mL] | MIC (Escherichia coli NIHJ) [µg/mL] | MIC [3] [µg/mL] | MIC (Proteus vulgaris HX 19) [µg/mL] | MIC [4] [µg/mL] | MIC (Serratia No. 72) [µg/mL] | MIC [5] [µg/mL] |
| --- | --- | --- | --- | --- | --- | --- | --- | --- |
| CC(=O)OCC1=C(C(=O)O)N2C(=O)C(NC(=O)C(NC(=O)c3cnccc3O)c3ccc(CO)cc3)C2SC1 (racemic) [Example 88, 7-[DL-α-(4-Hydroxypyridine-3-carbonamido)-α-p-hydroxymethylphenylacetamido]cephalosporanic Acid] | 0.78 (≈ 1.4 µM) | 6.25 (≈ 11.2 µM) | 25 (≈ 44.9 µM) | 25 (≈ 44.9 µM) | 0.39 (≈ 0.701 µM) | 12.5 (≈ 22.5 µM) | > 200 | 25 (≈ 44.9 µM) |
| CSc1cnc2c(O)c(C(=O)NC(C(=O)NC3C(=O)N4C(C(=O)O)=C(CSc5nnnn5C)CSC34)c3cccc(NC(N)=O)c3)cnc2n1 (stereo not shown) [Example 41] | 1.56 (≈ 2.11 µM) | 6.25 (≈ 8.46 µM) | 3.13 (≈ 4.24 µM) | 3.13 (≈ 4.24 µM) | 0.2 (≈ 0.271 µM) | 6.25 (≈ 8.46 µM) | 12.5 (≈ 16.9 µM) | 6.25 (≈ 8.46 µM) |
| NCc1nnc(SCC2=C(C(=O)O)N3C(=O)C(NC(=O)C(NC(=O)c4cnc5cccnc5c4O)c4cccc(N)c4)C3SC2)s1 (stereo not shown) [Example 79] | 0.78 (≈ 1.15 µM) | 12.5 (≈ 18.4 µM) | 6.25 (≈ 9.19 µM) | 3.13 (≈ 4.6 µM) | 0.2 (≈ 0.294 µM) | 3.13 (≈ 4.6 µM) | 12.5 (≈ 18.4 µM) | 6.25 (≈ 9.19 µM) |
| Cn1nnnc1SCC1=C(C(=O)O)N2C(=O)C(NC(=O)[C@H](NC(=O)c3cnc4cccnc4c3O)c3ccc(O)cc3)C2SC1 (stereo partly shown) [Example 131] | 0.78 (≈ 1.2 µM) | 3.13 (≈ 4.82 µM) | 1.56 (≈ 2.4 µM) | 0.78 (≈ 1.2 µM) | 0.1 (≈ 0.154 µM) | 3.13 (≈ 4.82 µM) | 12.5 (≈ 19.2 µM) | 3.13 (≈ 4.82 µM) |
| Cc1nnc(SCC2=C(C(=O)O)N3C(=O)[C@@H](NC(=O)[C@H](NC(=O)c4cnc5ccc(N(C)C)nc5c4O)c4ccc(NC(N)=O)cc4)[C@H]3SC2)s1 [Example 28] | 1.56 (≈ 2.08 µM) | 6.25 (≈ 8.32 µM) | 1.56 (≈ 2.08 µM) | 1.56 (≈ 2.08 µM) | 0.1 (≈ 0.133 µM) | 3.13 (≈ 4.17 µM) | 12.5 (≈ 16.6 µM) | 3.13 (≈ 4.17 µM) |
| CN(C)c1ccc2ncc(C(=O)N[C@@H](C(=O)NC3C(=O)N4C(C(=O)O)=C(CSc5n[nH]c(=O)s5)CSC34)c3ccc(O)c(F)c3)c(O)c2n1 (stereo partly shown) [Example 151] | 0.78 (≈ 1.07 µM) | 6.25 (≈ 8.58 µM) | 1.56 (≈ 2.14 µM) | 1.56 (≈ 2.14 µM) | 0.39 (≈ 0.535 µM) | 6.25 (≈ 8.58 µM) | 12.5 (≈ 17.2 µM) | 6.25 (≈ 8.58 µM) |
| Nc1cccc(C(NC(=O)c2ccnnc2O)C(=O)NC2C(=O)N3C(C(=O)O)=C(CSc4nnc(CO)s4)CSC23)c1 (stereo not shown) [Example 86] | 0.78 (≈ 1.24 µM) | 6.25 (≈ 9.91 µM) | 12.5 (≈ 19.8 µM) | 6.25 (≈ 9.91 µM) | 0.39 (≈ 0.618 µM) | 12.5 (≈ 19.8 µM) | 50 (≈ 79.3 µM) | 12.5 (≈ 19.8 µM) |

More lines, in order of falling MIC [1], values ahead:

| MIC [1] [µg/mL] | MIC [2] [µg/mL] | MIC (Escherichia coli NIHJ) [µg/mL] | MIC [3] [µg/mL] | MIC (Proteus vulgaris HX 19) [µg/mL] | MIC [4] [µg/mL] | MIC (Serratia No. 72) [µg/mL] | MIC [5] [µg/mL] | Compound |
| --- | --- | --- | --- | --- | --- | --- | --- | --- |
| 0.78 (≈ 1.15 µM) | 6.25 (≈ 9.2 µM) | 3.13 (≈ 4.6 µM) | 1.56 (≈ 2.3 µM) | 0.2 (≈ 0.294 µM) | 3.13 (≈ 4.6 µM) | 12.5 (≈ 18.4 µM) | 3.13 (≈ 4.6 µM) | COc1ccc2ncc(C(=O)NC(C(=O)NC3C(=O)N4C(C(=O)O)=C(CSc5nnnn5C)CSC34)c3cccc(O)c3)c(O)c2n1 (stereo not shown) [Example 164] |
| 0.78 (≈ 1.1 µM) | 3.13 (≈ 4.42 µM) | 3.13 (≈ 4.42 µM) | 1.56 (≈ 2.2 µM) | 0.1 (≈ 0.141 µM) | 3.13 (≈ 4.42 µM) | 12.5 (≈ 17.7 µM) | 3.13 (≈ 4.42 µM) | Cc1nnc(SCC2=C(C(=O)O)N3C(=O)[C@@H](NC(=O)[C@H](NC(=O)c4cnc5cccnc5c4O)c4ccc(NC(N)=O)cc4)[C@H]3SC2)s1 [Example 20] |
| 0.78 (≈ 1.13 µM) | 6.25 (≈ 9.04 µM) | 1.56 (≈ 2.26 µM) | 1.56 (≈ 2.26 µM) | 0.1 (≈ 0.145 µM) | 3.13 (≈ 4.53 µM) | 12.5 (≈ 18.1 µM) | 3.13 (≈ 4.53 µM) | Cn1nnnc1SCC1=C(C(=O)O)N2C(=O)[C@@H](NC(=O)[C@H](NC(=O)c3cnc4cccnc4c3O)c3ccc(NC(N)=O)cc3)[C@H]2SC1 [Example 22] |
| 0.39 (≈ 0.619 µM) | 6.25 (≈ 9.93 µM) | 6.25 (≈ 9.93 µM) | 6.25 (≈ 9.93 µM) | 0.2 (≈ 0.318 µM) | 6.25 (≈ 9.93 µM) | 50 (≈ 79.4 µM) | 12.5 (≈ 19.9 µM) | Nc1ccc(C(NC(=O)c2cnccc2O)C(=O)NC2C(=O)N3C(C(=O)O)=C(CSc4nnc(CO)s4)CSC23)cc1 (stereo not shown) [Example 83] |
| 0.39 (≈ 0.667 µM) | 6.25 (≈ 10.7 µM) | 12.5 (≈ 21.4 µM) | 12.5 (≈ 21.4 µM) | 0.39 (≈ 0.667 µM) | 6.25 (≈ 10.7 µM) | > 200 | 25 (≈ 42.8 µM) | CC(=O)OCC1=C(C(=O)O)N2C(=O)[C@@H](NC(=O)[C@H](NC(=O)c3cnccc3O)c3cccc(NC(N)=O)c3)[C@H]2SC1 [Example 2] |
| 0.39 (≈ 0.719 µM) | 3.13 (≈ 5.77 µM) | 12.5 (≈ 23 µM) | 12.5 (≈ 23 µM) | 0.2 (≈ 0.369 µM) | 6.25 (≈ 11.5 µM) | > 200 | 25 (≈ 46.1 µM) | CC(=O)OCC1=C(C(=O)O)N2C(=O)C(NC(=O)C(NC(=O)c3ccnnc3O)c3ccc(N)cc3)C2SC1 (stereo not shown) [Example 58] |
| 0.39 (≈ 0.719 µM) | 6.25 (≈ 11.5 µM) | 12.5 (≈ 23 µM) | 25 (≈ 46.1 µM) | 0.78 (≈ 1.44 µM) | 12.5 (≈ 23 µM) | > 200 | 25 (≈ 46.1 µM) | CC(=O)OCC1=C(C(=O)O)N2C(=O)C(NC(=O)C(NC(=O)c3cccnc3O)c3ccc(O)cc3)C2SC1 (stereo not shown) [Example 115] |
